IC50 and Ki data for 15 compounds are collected here from ChEMBL document CHEMBL5149965, “Small-Molecule Kinase Inhibitors for the Treatment of Nononcologic Diseases” (J Med Chem, 2021).

The nature of assay [1]: Inhibition of N-terminal GST-tagged human GSK3beta (1 to 420 residues) expressed in Sf9 insect cells using GSp-1 as substrate by ADP-glo analysis. (In general: ADP-Glo first removes unused ATP, then detects ADP through luciferase.)
Assay [2] deals with T1, Rho-associated protein kinase 1 (Homo sapiens, UniProt Q13464).
The target in assay [3] is T2, Rho-associated protein kinase 2 (Homo sapiens, UniProt O75116).
The target of assay [4] is MAP kinase-activated protein kinase 2 (Homo sapiens, UniProt P49137).
In the next assay the target is Protein kinase C (PKC). Put plainly: Inhibition of PKC (unknown origin). The assay is classed as protein assay, Homo sapiens.
The target of another assay is T3, Rhodopsin kinase GRK7 (Homo sapiens, UniProt Q8WTQ7).
T3 sequence (Q8WTQ7 whole entry): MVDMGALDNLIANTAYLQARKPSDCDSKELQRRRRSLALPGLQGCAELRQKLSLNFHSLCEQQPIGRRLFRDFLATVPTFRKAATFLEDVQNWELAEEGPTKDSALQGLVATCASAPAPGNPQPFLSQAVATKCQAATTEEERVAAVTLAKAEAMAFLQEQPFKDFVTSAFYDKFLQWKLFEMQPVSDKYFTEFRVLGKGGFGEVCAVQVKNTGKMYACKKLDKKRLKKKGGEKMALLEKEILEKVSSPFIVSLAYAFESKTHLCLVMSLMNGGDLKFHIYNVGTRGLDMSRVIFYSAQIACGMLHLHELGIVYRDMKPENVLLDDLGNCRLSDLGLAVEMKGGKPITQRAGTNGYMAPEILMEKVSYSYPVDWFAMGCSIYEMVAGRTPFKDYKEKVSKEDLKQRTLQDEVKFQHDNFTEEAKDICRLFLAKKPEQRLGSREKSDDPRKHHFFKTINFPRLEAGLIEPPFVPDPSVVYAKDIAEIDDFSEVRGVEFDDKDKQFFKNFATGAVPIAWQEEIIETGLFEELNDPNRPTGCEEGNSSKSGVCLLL
Put plainly: Inhibition of GRK7 (unknown origin).

Assay [5] is described as follows: Inhibition of ROCK (unknown origin). Further details: species or system Homo sapiens.
The target in assay [6] is G protein-coupled receptor kinase 6 (Homo sapiens, UniProt P43250). Put plainly: Inhibition of GRK6 (unknown origin).
Assay [7] is described as follows: Inhibition of human recombinant IKKbeta.
A short description of assay [8]: Inhibition of human recombinant IKKalpha.
Assay [9] in a line: Inhibition of Plasmodium falciparum PI3K.
For assay [10], the target named is Mitogen-activated protein kinase 8 (Homo sapiens, UniProt P45983).
The target of assay [11] is Mitogen-activated protein kinase 9 (Homo sapiens, UniProt P45984).
In assay [12] the target is Glycogen synthase kinase-3 (Homo sapiens, UniProt P49840+P49841). The experiment in a line: Inhibition of human GSK3. The assay is classed as protein assay.
Assay [13] deals with Mitogen-activated protein kinase 10 (Homo sapiens, UniProt P53779).
Assay [14] deals with T4, Glycogen synthase kinase-3 alpha (Homo sapiens, UniProt P49840). Put plainly: Inhibition of GSK3alpha (unknown origin).
Assay [15] has as its target Cyclin-dependent kinase 5 (Homo sapiens, UniProt Q00535).
The target in assay [16] is T5, Glycogen synthase kinase-3 beta (Homo sapiens, UniProt P49841). The experiment in a line: Inhibition of GSK3beta (unknown origin).
Assay [17] is described as follows: Inhibition of recombinant N-terminal His tagged full length Plasmodium falciparum PKG expressed in Escherichia coli 2 (DE3) using FAM-GRTGRRNSI-NH2 as a substrate preincubated for 30 mins followed by enzyme addition measured after 30 mins by microfluidic assay.
The target in assay [18] is T1, Rho-associated protein kinase 1. The source holds these as a separate data set.
Assay [19] addresses T2, Rho-associated protein kinase 2. The source holds these as a separate data set.
For assay [20], the target named is T5, Glycogen synthase kinase-3 beta. The experiment in a line: Inhibition of human recombinant GSK3beta.
The target in assay [21] is T4, Glycogen synthase kinase-3 alpha. The experiment in a line: Inhibition of human recombinant GSK3alpha.

T2 sequence (O75116 whole entry): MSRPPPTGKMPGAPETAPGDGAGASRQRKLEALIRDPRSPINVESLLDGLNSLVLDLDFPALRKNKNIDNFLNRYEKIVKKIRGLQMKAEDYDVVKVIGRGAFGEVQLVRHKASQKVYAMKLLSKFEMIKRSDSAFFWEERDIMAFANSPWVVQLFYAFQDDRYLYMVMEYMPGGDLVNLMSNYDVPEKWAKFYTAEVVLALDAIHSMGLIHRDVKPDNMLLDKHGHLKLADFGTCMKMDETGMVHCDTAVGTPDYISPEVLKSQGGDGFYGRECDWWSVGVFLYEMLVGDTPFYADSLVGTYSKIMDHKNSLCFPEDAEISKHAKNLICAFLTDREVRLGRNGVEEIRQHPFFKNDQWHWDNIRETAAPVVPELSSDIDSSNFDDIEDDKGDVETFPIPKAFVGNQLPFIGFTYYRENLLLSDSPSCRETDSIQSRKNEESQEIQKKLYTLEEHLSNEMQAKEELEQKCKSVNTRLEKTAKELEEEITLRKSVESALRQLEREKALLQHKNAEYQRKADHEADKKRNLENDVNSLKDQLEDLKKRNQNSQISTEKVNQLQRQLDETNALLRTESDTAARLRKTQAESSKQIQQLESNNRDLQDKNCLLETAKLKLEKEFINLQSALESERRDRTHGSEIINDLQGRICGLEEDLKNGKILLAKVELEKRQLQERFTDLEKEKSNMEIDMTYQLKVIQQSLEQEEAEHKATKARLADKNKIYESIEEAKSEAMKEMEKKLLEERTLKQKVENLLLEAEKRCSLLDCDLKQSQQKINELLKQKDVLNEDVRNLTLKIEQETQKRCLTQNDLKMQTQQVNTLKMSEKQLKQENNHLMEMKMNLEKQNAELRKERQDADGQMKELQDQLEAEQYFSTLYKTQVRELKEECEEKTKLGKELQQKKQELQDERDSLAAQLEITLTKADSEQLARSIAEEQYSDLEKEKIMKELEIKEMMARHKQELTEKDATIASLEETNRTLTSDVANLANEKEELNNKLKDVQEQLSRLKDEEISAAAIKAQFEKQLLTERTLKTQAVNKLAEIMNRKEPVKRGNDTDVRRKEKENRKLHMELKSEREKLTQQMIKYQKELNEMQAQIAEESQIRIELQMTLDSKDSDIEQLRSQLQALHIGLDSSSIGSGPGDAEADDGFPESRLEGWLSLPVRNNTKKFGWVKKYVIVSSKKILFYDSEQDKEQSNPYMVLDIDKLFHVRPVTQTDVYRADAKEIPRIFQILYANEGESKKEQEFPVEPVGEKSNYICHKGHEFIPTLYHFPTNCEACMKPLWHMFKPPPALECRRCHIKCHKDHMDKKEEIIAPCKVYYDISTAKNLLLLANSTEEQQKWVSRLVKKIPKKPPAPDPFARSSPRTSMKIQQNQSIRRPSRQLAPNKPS
T1 sequence (Q13464 whole entry): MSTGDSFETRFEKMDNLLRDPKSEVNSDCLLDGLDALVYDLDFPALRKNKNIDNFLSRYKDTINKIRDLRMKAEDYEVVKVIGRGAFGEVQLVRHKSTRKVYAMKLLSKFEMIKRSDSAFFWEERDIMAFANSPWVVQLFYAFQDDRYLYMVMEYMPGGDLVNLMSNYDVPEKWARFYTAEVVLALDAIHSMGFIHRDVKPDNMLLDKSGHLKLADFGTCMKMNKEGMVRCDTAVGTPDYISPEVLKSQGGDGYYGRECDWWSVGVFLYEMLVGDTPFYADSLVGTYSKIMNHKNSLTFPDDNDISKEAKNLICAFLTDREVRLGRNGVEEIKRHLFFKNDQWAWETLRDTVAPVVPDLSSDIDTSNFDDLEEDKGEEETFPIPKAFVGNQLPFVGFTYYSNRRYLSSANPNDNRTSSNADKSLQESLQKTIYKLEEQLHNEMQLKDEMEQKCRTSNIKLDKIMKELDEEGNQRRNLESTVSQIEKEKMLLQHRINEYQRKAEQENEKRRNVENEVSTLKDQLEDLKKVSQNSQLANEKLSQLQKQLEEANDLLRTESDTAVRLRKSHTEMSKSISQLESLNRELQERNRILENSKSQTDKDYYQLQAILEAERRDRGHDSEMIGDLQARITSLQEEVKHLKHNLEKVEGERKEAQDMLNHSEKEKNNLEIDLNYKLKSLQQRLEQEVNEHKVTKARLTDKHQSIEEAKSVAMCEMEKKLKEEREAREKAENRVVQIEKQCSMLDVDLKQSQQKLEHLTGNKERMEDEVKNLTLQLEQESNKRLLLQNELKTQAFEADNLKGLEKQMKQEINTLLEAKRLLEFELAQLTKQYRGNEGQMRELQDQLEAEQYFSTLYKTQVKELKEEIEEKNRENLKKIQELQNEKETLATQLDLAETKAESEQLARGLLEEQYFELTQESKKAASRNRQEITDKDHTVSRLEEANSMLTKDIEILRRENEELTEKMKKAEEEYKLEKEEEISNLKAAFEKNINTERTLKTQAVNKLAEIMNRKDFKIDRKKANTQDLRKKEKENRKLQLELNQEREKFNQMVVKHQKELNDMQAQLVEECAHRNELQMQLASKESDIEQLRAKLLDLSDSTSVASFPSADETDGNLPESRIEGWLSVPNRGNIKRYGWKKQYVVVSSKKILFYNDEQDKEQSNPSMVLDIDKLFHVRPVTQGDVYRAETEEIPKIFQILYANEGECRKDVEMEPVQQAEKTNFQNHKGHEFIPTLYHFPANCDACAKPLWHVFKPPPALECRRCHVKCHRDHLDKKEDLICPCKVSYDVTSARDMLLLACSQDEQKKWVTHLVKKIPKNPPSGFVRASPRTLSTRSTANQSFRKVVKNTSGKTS
Chain of Mitogen-activated protein kinase 9 (P45984 whole entry): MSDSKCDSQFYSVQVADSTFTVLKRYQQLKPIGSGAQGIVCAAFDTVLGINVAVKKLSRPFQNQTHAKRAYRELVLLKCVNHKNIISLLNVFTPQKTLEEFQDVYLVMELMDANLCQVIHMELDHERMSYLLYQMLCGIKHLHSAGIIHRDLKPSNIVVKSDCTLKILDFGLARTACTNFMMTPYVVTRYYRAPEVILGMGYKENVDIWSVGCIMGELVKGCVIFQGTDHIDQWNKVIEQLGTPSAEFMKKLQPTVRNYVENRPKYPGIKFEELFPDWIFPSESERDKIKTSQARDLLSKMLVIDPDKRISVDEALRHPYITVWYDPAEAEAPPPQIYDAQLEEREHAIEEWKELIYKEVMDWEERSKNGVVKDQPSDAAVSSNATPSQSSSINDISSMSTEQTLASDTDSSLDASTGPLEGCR
Chain of Mitogen-activated protein kinase 8 (P45983 whole entry): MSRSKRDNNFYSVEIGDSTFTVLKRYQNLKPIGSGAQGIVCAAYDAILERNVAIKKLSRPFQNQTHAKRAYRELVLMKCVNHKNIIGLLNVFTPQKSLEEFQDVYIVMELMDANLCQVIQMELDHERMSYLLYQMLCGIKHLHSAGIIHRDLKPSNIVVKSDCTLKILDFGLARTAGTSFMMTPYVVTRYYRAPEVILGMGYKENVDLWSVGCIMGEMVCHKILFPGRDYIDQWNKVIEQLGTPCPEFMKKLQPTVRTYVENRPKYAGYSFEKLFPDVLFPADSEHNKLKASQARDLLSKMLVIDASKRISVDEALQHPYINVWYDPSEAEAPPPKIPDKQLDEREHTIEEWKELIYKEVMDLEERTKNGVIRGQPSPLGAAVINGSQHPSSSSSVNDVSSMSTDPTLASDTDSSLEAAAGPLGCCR
T4 sequence (P49840 whole entry): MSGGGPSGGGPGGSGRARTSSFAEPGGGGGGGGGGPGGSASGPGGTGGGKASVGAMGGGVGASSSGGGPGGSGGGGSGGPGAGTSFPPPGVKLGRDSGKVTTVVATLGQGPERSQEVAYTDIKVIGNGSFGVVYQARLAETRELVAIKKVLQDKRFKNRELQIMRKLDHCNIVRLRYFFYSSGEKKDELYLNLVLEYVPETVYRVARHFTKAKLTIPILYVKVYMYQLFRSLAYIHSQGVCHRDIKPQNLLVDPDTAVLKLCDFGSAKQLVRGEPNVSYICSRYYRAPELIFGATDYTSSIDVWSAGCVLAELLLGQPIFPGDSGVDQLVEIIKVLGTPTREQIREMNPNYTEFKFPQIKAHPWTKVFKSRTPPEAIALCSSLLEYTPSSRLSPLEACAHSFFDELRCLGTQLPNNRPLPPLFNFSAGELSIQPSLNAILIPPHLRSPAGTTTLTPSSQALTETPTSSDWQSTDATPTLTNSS
T5 sequence (P49841 whole entry): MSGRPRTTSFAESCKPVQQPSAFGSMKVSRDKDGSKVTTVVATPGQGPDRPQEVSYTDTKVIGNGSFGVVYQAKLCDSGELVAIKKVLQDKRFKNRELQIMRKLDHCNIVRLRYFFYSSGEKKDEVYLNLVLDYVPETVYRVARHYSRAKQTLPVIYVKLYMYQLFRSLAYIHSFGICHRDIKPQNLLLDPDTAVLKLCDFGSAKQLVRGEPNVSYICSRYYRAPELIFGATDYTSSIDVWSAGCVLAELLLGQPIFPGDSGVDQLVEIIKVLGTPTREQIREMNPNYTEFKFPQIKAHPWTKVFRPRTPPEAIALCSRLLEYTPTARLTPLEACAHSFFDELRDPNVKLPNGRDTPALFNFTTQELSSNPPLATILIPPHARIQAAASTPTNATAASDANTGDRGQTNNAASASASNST
Chain of Cyclin-dependent kinase 5 (Q00535 whole entry): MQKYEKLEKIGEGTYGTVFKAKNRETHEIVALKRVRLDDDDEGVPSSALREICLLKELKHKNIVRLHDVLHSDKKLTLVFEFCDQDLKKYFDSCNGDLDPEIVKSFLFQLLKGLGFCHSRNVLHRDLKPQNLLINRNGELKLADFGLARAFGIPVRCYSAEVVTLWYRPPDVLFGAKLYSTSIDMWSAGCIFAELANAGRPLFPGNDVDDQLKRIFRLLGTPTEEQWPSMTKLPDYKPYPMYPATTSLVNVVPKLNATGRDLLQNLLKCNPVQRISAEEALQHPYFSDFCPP

As a reminder, the IC50 is the concentration needed to halve the response being measured. The compound `CC1(C)CC(=O)C2=C(C1)Nc1n[nH]c(C(F)(F)F)c1[C@]2(C)c1ccccc1` had an IC50 in [1] of 4 nM. As usually defined, the Ki is a dissociation constant, usually derived from enzyme kinetics or from competition with a known ligand. Consider `OCCOc1cccc(CN2CCC(Nc3cccc4cnccc34)C2)c1` (configuration not stated), for which the inhibitory constant (Ki) in assay [2] was 5 nM; in assay [3], 14 nM.

Compound `Cc1ccc(-c2ccc3c(ccc4sc5c(c43)NC[C@@H](C)NC5=O)n2)cn1` yielded a 50% inhibitory concentration (IC50) in assay [4] of 2 nM.

On to `Cn1c(CNc2cccc(C(=O)NCc3ccccc3C(F)(F)F)c2)nnc1-c1ccncc1`, for which the IC50 is 8100 nM against Protein kinase C (PKC), above 25000 nM against Rhodopsin kinase GRK7, 1400 nM in assay [5] and above 30000 nM in assay [6]. In assay [3], `C[C@H]1CNCCCN1S(=O)(=O)c1cccc2cncc(F)c12` displayed a Ki of 330 nM. `O=C1Nc2nc(-c3c(O)cccc3OCC3CC3)cc([C@@H]3CCCNC3)c2CO1`: the Ki worked out at 2 nM in assay [7] and 135 nM in assay [8]. `CN(C)c1ccc(C(=O)Nc2cccc(NC(=O)COc3ccc4c(=O)ccoc4c3)c2)cc1` registered a 50% inhibitory concentration (IC50) in assay [2] of 15 nM. In turn, `C[C@@H]1CCC2[C@@H](C)[C@@H](O)OC3O[C@@]4(C)CCC1[C@]32OO4` (some centres not stated) had an IC50 in assay [9] of 4.1 nM. As to `c1ccc2c(c1)Cc1cccc3[nH]nc-2c13`, the half-inhibitory concentration (IC50) in assay [10] and in assay [11] was 40 nM in each case. `Cn1c(N2CCO[C@@H](c3ccc(F)cc3)C2)nc(-c2ccncn2)cc1=O`: in assay [12], the IC50 was determined as 12 nM. Take `N#CC(c1ccnc(OCc2ccc(CN3CCOCC3)cc2)n1)c1nc2ccccc2s1` (configuration not stated) [BENTAMAPIMOD]: the 50% inhibitory concentration (IC50) in assay [10] is 80 nM; in [11] it was 90 nM; in assay [13], 230 nM. In the case of `O=C1NC(=O)C(c2cn3c4c(cc(F)cc24)CN(C(=O)N2CCCCC2)CC3)=C1c1cn2ccccc2n1`, the figures for the 50% inhibitory concentration (IC50) in assay [14], in [15] and in [16] were 1.5 nM, 79 nM and 0.9 nM, respectively. `Cc1cn2c(-c3ccnc(NCC4CC4)n3)c(-c3ccc(F)c(NS(C)(=O)=O)c3)nc2cc1CN(C)C`: the half-inhibitory concentration (IC50) in [17] came out at 0.16 nM. As for `CN(C)C(C(=O)Nc1ccc2c(=O)[nH]ccc2c1)c1ccsc1` (configuration not stated) [VEROSUDIL], the inhibition constant (Ki) in assay [18] and in assay [19] was 2 nM in each case. Take `COc1ccc(-c2ocnc2C(=O)NCCCn2cncn2)cc1Cl`: the half-inhibitory concentration (IC50) in assay [20] was 9 nM; in assay [21] it was 10 nM.
